In PubChem BioAssay AID328 (DTP/NCI, 2004):
Values joined by “and” are separate entries in the source; they are usually repeats but may differ in a detail not shown here. Equal values may be shown once. Toxic doses and inconclusive results are not listed.

Tested on: BDF1 mice, P388 leukemia ip, median survival T/C
Assay: NCI In Vivo Anticancer Drug Screen. Data for tumor model P388 Leukemia (intraperitoneal) in B6D2F1 (BDF1) mice
Details: endpoint: median survival time, higher = longer survival
In short: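 In tumour-bearing mice, survival after compound treatment is set against the vehicle group and given as a quotient.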

[1] = dose: 100.0 mg/kg/injection, schedule: Q01DX009 (ip), vehicle: Klucel (hydroxypropylcellulose) (HPC)
[2] = dose: 100.0 mg/kg/injection, schedule: Q04DX003 (ip), vehicle: Klucel (hydroxypropylcellulose) (HPC)
[3] = dose: 200.0 mg/kg/injection, schedule: Q01DX009 (ip), vehicle: Klucel (hydroxypropylcellulose) (HPC)
[4] = dose: 200.0 mg/kg/injection, schedule: Q04DX003 (ip), vehicle: Klucel (hydroxypropylcellulose) (HPC)
[5] = dose: 50.0 mg/kg/injection, schedule: Q04DX003 (ip), vehicle: Klucel (hydroxypropylcellulose) (HPC)
[6] = dose: 100.0 mg/kg/injection, schedule: Q01DX009 (ip), vehicle: saline with Tween-80
[7] = dose: 200.0 mg/kg/injection, schedule: Q01DX009 (ip), vehicle: saline with Tween-80
[8] = dose: 100.0 mg/kg/injection, schedule: Q04DX003 (ip), vehicle: saline with Tween-80
[9] = dose: 200.0 mg/kg/injection, schedule: Q04DX003 (ip), vehicle: saline with Tween-80
[10] = dose: 400.0 mg/kg/injection, schedule: Q04DX003 (ip), vehicle: saline with Tween-80

SMILES: CCOC(=O)C(C#N)C1CCCCC1 (stereo not drawn)
- T/C [1]: 100 % of control
- T/C [2]: 104 % of control
- T/C [3]: 104 % of control
- T/C [4]: 104 % of control
- T/C (dose: 400.0 mg/kg/injection, schedule: Q01DX009 (ip), vehicle: Klucel (hydroxypropylcellulose) (HPC)): 109 % of control
- T/C (dose: 400.0 mg/kg/injection, schedule: Q04DX003 (ip), vehicle: Klucel (hydroxypropylcellulose) (HPC)): 90 % of control

SMILES: CO[C@@H]([CH2][Hg][S]C#N)[C@@H]([CH2][Hg][S]C#N)OC
- T/C (dose: 6.25 mg/kg/injection, schedule: Q01DX009 (ip), vehicle: other): 110 % of control
- T/C (dose: 12.5 mg/kg/injection, schedule: Q01DX009 (ip), vehicle: other): 120 % of control
- T/C (dose: 25.0 mg/kg/injection, schedule: Q01DX009 (ip), vehicle: other): 100 % of control and 109 % of control
- T/C (dose: 25.0 mg/kg/injection, schedule: Q04DX003 (ip), vehicle: other): 100 % of control
- T/C (dose: 50.0 mg/kg/injection, schedule: Q04DX003 (ip), vehicle: other): 103 % of control
- T/C (dose: 100.0 mg/kg/injection, schedule: Q04DX003 (ip), vehicle: saline sonified): 90 % of control

SMILES: Cc1ccc([I+]c2ccc(C)cc2C)c(C)c1
- T/C (dose: 0.19 mg/kg/injection, schedule: Q01DX009 (ip), vehicle: Klucel (hydroxypropylcellulose) (HPC)): 90 % of control
- T/C (dose: 0.39 mg/kg/injection, schedule: Q01DX009 (ip), vehicle: Klucel (hydroxypropylcellulose) (HPC)): 90 % of control
- T/C (dose: 0.78 mg/kg/injection, schedule: Q01DX009 (ip), vehicle: Klucel (hydroxypropylcellulose) (HPC)): 100 % of control
- T/C (dose: 1.17 mg/kg/injection, schedule: Q04DX003 (ip), vehicle: Klucel (hydroxypropylcellulose) (HPC)): 104 % of control
- T/C (dose: 1.5 mg/kg/injection, schedule: Q01DX009 (ip), vehicle: Klucel (hydroxypropylcellulose) (HPC)): 90 % of control
- T/C (dose: 1.56 mg/kg/injection, schedule: Q01DX009 (ip), vehicle: Klucel (hydroxypropylcellulose) (HPC)): 87 % of control
- T/C (dose: 2.34 mg/kg/injection, schedule: Q04DX003 (ip), vehicle: Klucel (hydroxypropylcellulose) (HPC)): 108 % of control
- T/C (dose: 3.0 mg/kg/injection, schedule: Q01DX009 (ip), vehicle: Klucel (hydroxypropylcellulose) (HPC)): 100 % of control and 103 % of control
- T/C (dose: 4.68 mg/kg/injection, schedule: Q04DX003 (ip), vehicle: Klucel (hydroxypropylcellulose) (HPC)): 113 % of control
- T/C (dose: 6.0 mg/kg/injection, schedule: Q01DX009 (ip), vehicle: Klucel (hydroxypropylcellulose) (HPC)): 103 % of control
- T/C (dose: 6.6 mg/kg/injection, schedule: Q04DX003 (ip), vehicle: Klucel (hydroxypropylcellulose) (HPC)): 100 % of control
- T/C (dose: 10.0 mg/kg/injection, schedule: Q04DX003 (ip), vehicle: Klucel (hydroxypropylcellulose) (HPC)): 113 % of control
- T/C (dose: 12.0 mg/kg/injection, schedule: Q04DX003 (ip), vehicle: Klucel (hydroxypropylcellulose) (HPC)): 100 % of control
- T/C (dose: 12.5 mg/kg/injection, schedule: Q04DX003 (ip), vehicle: Klucel (hydroxypropylcellulose) (HPC)): 103 % of control
- T/C (dose: 25.0 mg/kg/injection, schedule: Q04DX003 (ip), vehicle: Klucel (hydroxypropylcellulose) (HPC)): 100 % of control
- T/C [5]: 91 % of control

SMILES: COc1ccc(OC)c(NC(=O)Sc2c(Cl)c(Cl)nc(Cl)c2Cl)c1
- T/C (dose: 25.0 mg/kg/injection, schedule: Q01DX009 (ip), vehicle: Klucel (hydroxypropylcellulose) (HPC)): 123 % of control
- T/C [1]: 124 % of control
- T/C [3]: 123 % of control

SMILES: Cc1ccc(S(=O)(=O)OCC2C3CCC2C3)cc1 (stereo not drawn)
- T/C (dose: 50.0 mg/kg/injection, schedule: Q01DX009 (ip), vehicle: saline with Tween-80): 101 % of control
- T/C [6]: 107 % of control
- T/C [7]: 107 % of control

SMILES: Cc1cccc(NNC(=S)Nc2ccccc2)c1
- T/C [6]: 104 % of control
- T/C [7]: 95 % of control
- T/C (dose: 400.0 mg/kg/injection, schedule: Q01DX009 (ip), vehicle: saline with Tween-80): 104 % of control

SMILES: CCC1OC(=O)C(C)C(OC2CC(C)(O)C(O)C(C)O2)C(C)C(O)C(C)(O)CC(C)C(=O)C(C)C(O)C1C (stereo not drawn)
- T/C (dose: 100.0 mg/kg/injection, schedule: Q01DX009 (ip), vehicle: saline): 100 % of control
- T/C (dose: 200.0 mg/kg/injection, schedule: Q01DX009 (ip), vehicle: saline): 94 % of control

SMILES: CC(=O)[C@H]1CC[C@H]2[C@@H]3CCC4=CC(=O)[C@H](C)C[C@]4(C)[C@@]3(F)C(=O)C[C@]12C
- T/C [6]: 95 % of control
- T/C [8]: 120 % of control
- T/C [7]: 90 % of control
- T/C [9]: 110 % of control
- T/C [10]: 100 % of control

SMILES: O=C(O)CCCCCNC(=O)c1ccccc1
- T/C [5]: 118 % of control
- T/C (dose: 100.0 mg/kg/injection, schedule: Q01DX001 (ip), vehicle: Klucel (hydroxypropylcellulose) (HPC)): 100 % of control
- T/C [2]: 100 % of control
- T/C (dose: 200.0 mg/kg/injection, schedule: Q01DX001 (ip), vehicle: Klucel (hydroxypropylcellulose) (HPC)): 104 % of control
- T/C [4]: 100 % of control
- T/C (dose: 400.0 mg/kg/injection, schedule: Q01DX001 (ip), vehicle: Klucel (hydroxypropylcellulose) (HPC)): 100 % of control

SMILES: OCCNCCNCCO
- T/C (dose: 50.0 mg/kg/injection, schedule: Q01DX001 (ip), vehicle: saline): 100 % of control
- T/C (dose: 100.0 mg/kg/injection, schedule: Q01DX001 (ip), vehicle: saline): 104 % of control
- T/C (dose: 200.0 mg/kg/injection, schedule: Q01DX001 (ip), vehicle: saline): 104 % of control

SMILES: CCOc1ccc(Nc2ncnc3nc[nH]c23)cc1CN(CCCl)CCCl
- T/C (dose: 0.13 mg/kg/injection, schedule: Q04DX003 (ip), vehicle: saline): 106 % of control
- T/C (dose: 0.2 mg/kg/injection, schedule: Q04DX003 (ip), vehicle: saline): 117 % of control
- T/C (dose: 0.25 mg/kg/injection, schedule: Q01DX009 (ip), vehicle: saline): 118 % of control
- T/C (dose: 0.29 mg/kg/injection, schedule: Q04DX003 (ip), vehicle: saline): 196 % of control
- T/C (dose: 0.3 mg/kg/injection, schedule: Q04DX003 (ip), vehicle: saline): 121 % of control
- T/C (dose: 0.88 mg/kg/injection, schedule: Q04DX003 (ip), vehicle: saline): 165 % of control
- T/C (dose: 1.0 mg/kg/injection, schedule: Q01DX009 (ip), vehicle: saline): 154 % of control
- T/C (dose: 1.0 mg/kg/injection, schedule: Q04DX003 (ip), vehicle: saline): 205 % of control
- T/C (dose: 2.0 mg/kg/injection, schedule: Q01DX009 (ip), vehicle: saline): 172 % of control
- T/C (dose: 2.2 mg/kg/injection, schedule: Q01DX009 (ip), vehicle: saline): 163 % of control
- T/C (dose: 3.0 mg/kg/injection, schedule: Q04DX003 (ip), vehicle: saline): 155 % of control
- T/C (dose: 3.3 mg/kg/injection, schedule: Q01DX009 (ip), vehicle: saline): 154 % of control

SMILES: O=C(CC(O)(C(F)(F)F)C(F)(F)F)c1ccccc1Cl
- T/C [8]: 120 % of control
- T/C [9]: 100 % of control
- T/C [10]: 120 % of control

SMILES: CCN(CC)CC1CO1 (stereo not drawn)
- T/C (dose: 12.5 mg/kg/injection, schedule: Q01DX009 (ip), vehicle: saline): 100 % of control

SMILES: C=CC12COC(=O)C(=C)C1C1OC(=O)C(=C)C1C(O)C2 (stereo not drawn)
- T/C (dose: 1.0 mg/kg/injection, schedule: Q01DX009 (ip), vehicle: water): 118 % of control
- T/C (dose: 2.0 mg/kg/injection, schedule: Q01DX009 (ip), vehicle: water): 109 % of control
- T/C (dose: 4.6 mg/kg/injection, schedule: Q01DX010 (ip), vehicle: carboxymethylcellulose (CMC)): 115 % of control
- T/C (dose: 8.0 mg/kg/injection, schedule: Q01DX009 (ip), vehicle: water): 113 % of control
- T/C (dose: 10.0 mg/kg/injection, schedule: Q01DX009 (ip), vehicle: saline + alcohol): 122 % of control
- T/C (dose: 125.0 micrograms/kg/injection, schedule: Q01DX010 (ip), vehicle: carboxymethylcellulose (CMC)): 95 % of control
- T/C (dose: 250.0 micrograms/kg/injection, schedule: Q01DX010 (ip), vehicle: carboxymethylcellulose (CMC)): 95 % of control
- T/C (dose: 500.0 micrograms/kg/injection, schedule: Q01DX010 (ip), vehicle: carboxymethylcellulose (CMC)): 100 % of control
- T/C (dose: 1000.0 micrograms/kg/injection, schedule: Q01DX010 (ip), vehicle: carboxymethylcellulose (CMC)): 104 % of control
- T/C (dose: 2000.0 micrograms/kg/injection, schedule: Q01DX010 (ip), vehicle: carboxymethylcellulose (CMC)): 104 % of control
- T/C (dose: 4000.0 micrograms/kg/injection, schedule: Q01DX010 (ip), vehicle: carboxymethylcellulose (CMC)): 100 % of control

SMILES: COc1ccccc1/C=N/NC(=O)c1ccccc1
- T/C [8]: 100 % of control
- T/C [9]: 104 % of control
- T/C [10]: 104 % of control
